Reference: patent publication US9808008B2, “Synergistic pesticidal compositions and related methods” (Dow AgroSciences LLC, priority 2013, dated 2017)

What was measured:
Format in all cases: in vivo
[1] = tested on: Western plant bug (Lygus bug), Lygus hesperus (Knight); assay: Treated bean piece bioassay against Western plant bug (Lygus bug), synergy by Colby's equation; settings: Lygus bugs
Text: The method described in Colby S. R., “Calculating Synergistic and Antagonistic Responses of Herbicide Combinations,” Weeds, 1967, 15, 20-22 was used to determine an existence of synergic effect between the nAChR allosteric activator compound and the pesticide (I), (II), or any agriculturally acceptable salt thereof in the formulated pesticidal composition. In this method, the percent insect control of the formulated pesticidal composition as observed in the study was compared to the “expected” percent control (E) as calculated by equation (1) (hereinafter “Colby's equation”) below: [formula] where X is the percentage of control with the first pesticide at a given rate (p), Y is the percentage of control with the second pesticide at a given rate (q), and E is the expected control by the first and second pesticide at a rate of p+q. […] A pesticidal composition was prepared by thoroughly mixing about 0.04 weight % of compound I with about 0.00125 weight % of spinetoram. The active compounds were formulated in a 10% acetone solution with 0.025% non-ionic surfactant, TWEEN® 20. Bioassays were performed for each different active solution. Bean pieces (about one inch-long) were used for the tests. Four bean pieces were placed in each tested active solution and left there for 10 minutes. Bean pieces were taken out of the active solution, and each piece was placed in a well in a 32-well tray and allowed to air dry. Three third-instar nymphs of Western plant bug (Lygus bug), Lygus hesperus (Knight), were infested into each well. The percent control of the pesticidal composition against Lygus bug was determined as the “Observed” action, and compared to those obtained by using about 0.04 weight % of compound I, and using about 0.00125 weight % of spinetoram alone. The “Colby's Expected Action” was calculated using Colby's equation as discussed previously. A pesticidal composition was prepared by thoroughly mixing about 0.04 weight % of compound I with about 0.005 weight % of spinetoram. The bioassays were performed wherein different active compounds were tested against Western plant bug (Lygus bug), Lygus hesperus (Knight), using the procedure described in example 4A.

[2] = tested on: cotton aphid, Aphis gossypii (Glover); assay: Track-sprayed cotton plant bioassay against cotton aphid, synergy by Colby's equation; settings: Spinetoram alone, dose rate 0.005 weight %
Text: The method described in Colby S. R., “Calculating Synergistic and Antagonistic Responses of Herbicide Combinations,” Weeds, 1967, 15, 20-22 was used to determine an existence of synergic effect between the nAChR allosteric activator compound and the pesticide (I), (II), or any agriculturally acceptable salt thereof in the formulated pesticidal composition. In this method, the percent insect control of the formulated pesticidal composition as observed in the study was compared to the “expected” percent control (E) as calculated by equation (1) (hereinafter “Colby's equation”) below: [formula] where X is the percentage of control with the first pesticide at a given rate (p), Y is the percentage of control with the second pesticide at a given rate (q), and E is the expected control by the first and second pesticide at a rate of p+q. […] The percent control of the pesticidal composition against cotton aphid, Aphis gossypii (Glover), was determined as the “Observed” action, and compared to those obtained by using about 0.0020 weight % of compound II, and using about 0.005 weight % of spinetoram alone. The “Colby's Expected Action” was calculated using Colby's equation as discussed previously.

[3] = tested on: diamondback moth, Plutella xylostella; assay: Track-sprayed cabbage plant bioassay against diamondback moth, synergy by Colby's equation; settings: Spinetoram alone, dose rate 0.0003125 weight %
Text: The method described in Colby S. R., “Calculating Synergistic and Antagonistic Responses of Herbicide Combinations,” Weeds, 1967, 15, 20-22 was used to determine an existence of synergic effect between the nAChR allosteric activator compound and the pesticide (I), (II), or any agriculturally acceptable salt thereof in the formulated pesticidal composition. In this method, the percent insect control of the formulated pesticidal composition as observed in the study was compared to the “expected” percent control (E) as calculated by equation (1) (hereinafter “Colby's equation”) below: [formula] where X is the percentage of control with the first pesticide at a given rate (p), Y is the percentage of control with the second pesticide at a given rate (q), and E is the expected control by the first and second pesticide at a rate of p+q. […] Bioassays were performed for different active compounds. Cabbage plants with about two to three new-growth-true leaf stage were treated with different active compounds using a track sprayer at a volume of 400 L/Ha. Three second instar diamondback moth, Plutella xylostella, were infested onto each leaf disc. […] The “Colby's Expected Action” was calculated using Colby's equation as discussed previously.

[4] = tested on: South American brown stink bug, Euschistus heros; assay: Treated bean piece bioassay against South American brown stink bug, synergy by Colby's equation; settings: Spinetoram alone, dose rate 0.0000039 weight %
Text: The method described in Colby S. R., “Calculating Synergistic and Antagonistic Responses of Herbicide Combinations,” Weeds, 1967, 15, 20-22 was used to determine an existence of synergic effect between the nAChR allosteric activator compound and the pesticide (I), (II), or any agriculturally acceptable salt thereof in the formulated pesticidal composition. In this method, the percent insect control of the formulated pesticidal composition as observed in the study was compared to the “expected” percent control (E) as calculated by equation (1) (hereinafter “Colby's equation”) below: [formula] where X is the percentage of control with the first pesticide at a given rate (p), Y is the percentage of control with the second pesticide at a given rate (q), and E is the expected control by the first and second pesticide at a rate of p+q. […] The percent control of the pesticidal composition against South American brown stink bug, Euschistus heros, was determined as the “Observed” action, and compared to those obtained by using about 0.04 weight % of compound I, and using about 0.0000039 weight % of spinetoram alone. The “Colby's Expected Action” was calculated using Colby's equation as discussed previously.

| Compound | % Control Three Days After Treatment ([1]; Example 8A, Compound I alone, dose rate 0.04 weight %) | % Control Three Days After Treatment ([1]; Example 8B, Compound I alone, dose rate 0.04 weight %) | % Control Three Days After Treatment ([1]; Example 8B, Compound I alone, dose rate 0.04 weight %, listed as compound I) | % Control Three Days After Treatment ([1]; Example 8A, Spinetoram alone, dose rate 0.00125 weight %) | % Control Three Days After Treatment ([1]; Example 8A, Spinetoram alone, dose rate 0.00125 weight %, listed as spinetoram) | % Control Three Days After Treatment ([1]; Example 8B, Spinetoram alone, dose rate 0.005 weight %) | % Control Three Days After Treatment ([1]; Example 8B, Spinetoram alone, dose rate 0.005 weight %, listed as spinetoram) | % Control Three Days After Treatment [2] | % Control Three Days After Treatment [3] | % Control Four Days After Treatment [4] |
| --- | --- | --- | --- | --- | --- | --- | --- | --- | --- | --- |
| CCN(C(=O)CCSCCC(F)(F)F)c1cn(-c2cccnc2)nc1Cl [Compound I, N-(3-chloro-1-(pyridin-3-yl)-1H-pyrazol-4-yl)-N-ethyl-3-((3,3,3-trifluoropropyl)thio)propanamide] | no control | 0% | no control |  |  |  |  |  |  |  |
| Spinetoram |  |  |  | 0% | no control | 0% | no control | 2% | 54.17% | 25% |
